Measurements published in article PMC6222614, “Disubstituted 4-Chloro-3-nitrophenylthiourea Derivatives: Antimicrobial and Cytotoxic Studies” (Molecules : A Journal of Synthetic Chemistry and Natural …, 2018).
Where two headings read alike, the source gives them in different places.

Assays:
DU145 = test: Antiproliferative assay (MTT); assay type: cell-based, human; details: prostate carcinoma, concentration reducing cell proliferation by 50%, 96 h
Description: (§1) Cell lines derived from human solid tumors were: Skin melanoma (SK-MEL-28); prostate carcinoma (DU-145). Normal tissues foreskin fibroblasts (CRL-7065) were also used. Cells were seeded at 1 × 10^5 cells/mL in 96 well plates in specific media supplemented with 10% FCS and antibiotics, as above. Cell cultures were then incubated at 37 °C in a humidified, 5% CO2 atmosphere in the absence or presence of serial dilutions of test compounds. Cell viability was determined after 96 h at 37 °C by the MTT method.

SK-MEL-28 = test: Antiproliferative assay (MTT); assay type: cell-based, human; details: skin melanoma, concentration reducing cell proliferation by 50%, 96 h
Description: as §1

HaCaT cells [1] = test: Cell viability in HaCaT cells (MTT mitochondrial reduction); assay type: cell-based, human
Description: (§2) Human immortal keratinocyte cell line from adult human skin (HaCaT) was purchased from American Type Culture Collection (Rockville, MD, USA), and cultured in Dulbecco’s Modified Eagle’s Medium (DMEM), supplemented with antibiotics (penicillin and streptomycin), 10% heat-inactivated FBS-fetal bovine serum (Gibco Life Technologies, Carlsbad, CA, USA) at 37 °C and 5% CO2 atmosphere. Cells were passaged using trypsin-EDTA (Gibco Life Technologies, Carlsbad, CA, USA) and cultured in 24-well plates (2.5 × 10^4 cells per well). Experiments were conducted in DMEM with 2% FBS.
The cell viability assay was assessed by the determination of MTT salt (3-(4,5-dimethylthiazol-2-yl)-2,5-diphenyltetrazolium bromide, Sigma-Aldrich Chemie, Buchs, Germany) conversion by mitochondrial dehydrogenase. […] Absorbance of solubilized formazan was measured spectrophotometrically at 570 nm (using Epoch microplate reader, BioTek Inc., Winooski, VT, USA, equipped with Gen5 software (BioTech Instruments, Inc., Biokom, Janki, Polska).
Cell viability was presented as a percent of MTT in the treated cells versus the control (cells incubated in serum-free DMEM without extracts). The relative MTT level (%) was calculated as [A]/[B] × 100, where [A] is the absorbance of the test sample and [B] is the absorbance of the control sample containing the untreated cells. […]

HaCaT cells [2] = test: Proliferation rate in cultures of HaCaT cells (trypan blue counting); assay type: cell-based, human; details: lowest concentrations (8 µM for 11 and 13, 37 µM for 25), 48 h
Description: as §2
After 48 h incubation with the lowest concentration of the tested compound the increased number of viable cells were assessed by direct counting of cells using trypan blue with a Countess Automated Cell Counter (Invitrogen, Carlsbad, CA, USA). The results are presented as a % of viable and dead cells versus control.

HaCaT cells [3] = test: Lactate dehydrogenase (LDH) release assay in HaCaT cells; assay type: cell-based; details: 24 h
Description: Cells were passaged using trypsin-EDTA (Gibco Life Technologies, Carlsbad, CA, USA) and cultured in 24-well plates (2.5 × 10^4 cells per well). Experiments were conducted in DMEM with 2% FBS.
Release of lactate dehydrogenase (LDH) from the cytosol to culture medium is a marker of cell death. The assay was performed after 24 h incubation of HaCaT cells in 24-well plates with investigated concentrations of each compound. The activity of LDH released from the cytosol of damaged cells to the supernatant was measured using the protocol of the cytotoxicity detection kit LDH test described by the manufacturer (Roche Diagnostics, Berlin, Germany). Absorbance was measured at 490 nm using a microplate reader (using Epoch microplate reader, BioTek Inc., Winooski, VT, USA) equipped with Gen5 software (BioTech Instruments, Inc., Biokom, Janki, Polska)
Compounds mediated cytotoxicity expressed as the LDH release (%) was determined by the following equation: [(A test sample—A low control)/(A high control—A low control)] × 100% (A-absorbance); where “low control” were cells in DMEM with 2% FBS without tested compounds, and “high control” were cells incubated in DMEM with 2% FBS with 10% Triton X-100 (100% LDH release).

MT-4 cells = test: Cytotoxicity against mock-infected MT-4 cells (MTT); assay type: cell-based, human; details: concentration reducing viability of mock-infected MT-4 cells by 50%, 96 h
How it was run: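 Uninfected MT-4 cells (HTLV-1-transformed human CD4+ T cells) seeded at 1 × 10^5 cells/mL in RPMI-1640 with 10% FBS and grown with serially diluted compounds at 37 °C, 5% CO2. Viability read by MTT after 96 h.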

CRL7065 = test: Antiproliferative assay (MTT), normal cell line; assay type: cell-based, human; details: normal foreskin fibroblasts, concentration reducing cell proliferation by 50%, 96 h
Description: as §1

HIV-1 IIIB = test: Anti-HIV-1 activity: protection of MT-4 cells from virus-induced cytopathogenicity (MTT); assay type: cell-based, Human Immunodeficiency Virus type-1; details: 50% protection of MT-4 cells from HIV-1 induced cytopathogenicity, MTT, 4-day incubation; read-out: HIV-1IIIB EC50
How it was run: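 MT-4 cells (1 × 10^4/well) infected with HIV-1 IIIB at m.o.i. 0.01 (100 CCID50) in presence of serial compound dilutions. Protection from virus-induced cytopathogenicity measured by MTT viability after 4 days at 37 °C.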

MT-4 = test: Antiproliferative assay (MTT); assay type: cell-based, human; details: concentration reducing cell proliferation by 50%, 96 h, mean of three determinations
Description: (§3) Cell lines derived from human hematological tumors were: CD4+ human T-cells containing an integrated HTLV-1 genome (MT-4); CD4+ human acute T-lymphoblastic leukemia (CCRF-CEM); human splenic B-lymphoblastoid cells (WIL-2NS); human acute B-lymphoblastic leukemia (CCRF-SB). Cells were seeded at an initial density of 1 × 10^5 cells/mL in 96 well plates in RPMI-1640 medium supplemented with 10% fetal calf serum (FCS), 100 units/mL penicillin G and 100 μg/mL streptomycin.
as §1

CCRF-SB = test: Antiproliferative assay (MTT); assay type: cell-based, human; details: concentration reducing cell proliferation by 50%, 96 h, mean of three determinations
Description: as §3, §1

CCRF-CEM = test: Antiproliferative assay (MTT); assay type: cell-based, human; details: concentration reducing cell proliferation by 50%, 96 h, mean of three determinations
Description: as §3, §1

WIL-2NS = test: Antiproliferative assay (MTT); assay type: cell-based, human; details: concentration reducing cell proliferation by 50%, 96 h, mean of three determinations
Description: as §3, §1

Row | SMILES | CC50 (DU145) [µM] | CC50 (SK-MEL-28) [µM] | cytotoxicity (MTT) (HaCaT cells [1]) [%] | inhibition of viable cell proliferation (HaCaT cells [2]) | cell mortality (LDH release) increased to (HaCaT cells [3]) [%] | release of LDH (HaCaT cells [3]; concentrations 8 and 16 µM) [%] | CC50 (MT-4 cells) [µM] | CC50 (CRL7065) [µM] | EC50 (HIV-1 IIIB) [µM] | CC50 (MT-4) [µM] | CC50 (CCRF-SB) [µM] | CC50 (CCRF-CEM) [µM] | CC50 (WIL-2NS) [µM] | LD10 (concentration at which 10% of cells were dead) (HaCaT cells [3]; LDH assay) [µM] | cytotoxicity (MTT) (HaCaT cells [1]; HaCaT, 24 h, moderate according to ISO 10993-5) [%] | cytotoxicity as compared to the LD10 value (HaCaT cells [3]; all applied concentrations (37 µM and higher)) [fold]
1 | Cc1ccc(NC(=S)Nc2ccc(Cl)c([N+](=O)[O-])c2)cc1Cl [Compound 13] | 7 | 6 | 50 | 30–40% | 30 | ~10 | 8 | 16 | > 8 | 8 | 6.7 | 4 | 7.6 |  |  | 
2 | O=[N+]([O-])c1cc(NC(=S)Nc2ccc(Cl)c(Cl)c2)ccc1Cl [Compound 11] | 6 | 8.5 |  | ~65% | 20 |  | 7.9 | 16 | > 7.9 | 7.9 | 8.6 | 8 | 9.9 | 8 |  | 
3 | O=[N+]([O-])c1cc(NC(=S)NCc2ccccc2)ccc1Cl [Compound 25] |  |  |  | 30–40% |  |  | 36.7 |  | > 36.7 |  |  |  |  |  | 50 | 7
